Assay in all cases: Enzyme binding assay (KINOMEscan)
Holding throughout (settings): DiscoveRx, pKd = -log Kd (M)

For one assay, the target named is VEGFR2 (Homo sapiens (Human), UniProt P35968). Here is the method: (§1) Enzyme Binding Assays (KINOMEscan®)
(§2) Kinase enzyme binding affinities of compounds disclosed herein were determined using the KINOMEscan® technology performed by DiscoveRx Corporation, San Diego, Calif., USA (www.kinomescan.com). Table A2 reports the obtained pKd values, with Kd (M) being the inhibitor binding constant value and with pKd being −log Kd: […]

The target of a further assay is FGFR2 (Homo sapiens (Human), UniProt P21802). The protocol: as §1, §2
Chain of FGFR2 (P21802 22-821): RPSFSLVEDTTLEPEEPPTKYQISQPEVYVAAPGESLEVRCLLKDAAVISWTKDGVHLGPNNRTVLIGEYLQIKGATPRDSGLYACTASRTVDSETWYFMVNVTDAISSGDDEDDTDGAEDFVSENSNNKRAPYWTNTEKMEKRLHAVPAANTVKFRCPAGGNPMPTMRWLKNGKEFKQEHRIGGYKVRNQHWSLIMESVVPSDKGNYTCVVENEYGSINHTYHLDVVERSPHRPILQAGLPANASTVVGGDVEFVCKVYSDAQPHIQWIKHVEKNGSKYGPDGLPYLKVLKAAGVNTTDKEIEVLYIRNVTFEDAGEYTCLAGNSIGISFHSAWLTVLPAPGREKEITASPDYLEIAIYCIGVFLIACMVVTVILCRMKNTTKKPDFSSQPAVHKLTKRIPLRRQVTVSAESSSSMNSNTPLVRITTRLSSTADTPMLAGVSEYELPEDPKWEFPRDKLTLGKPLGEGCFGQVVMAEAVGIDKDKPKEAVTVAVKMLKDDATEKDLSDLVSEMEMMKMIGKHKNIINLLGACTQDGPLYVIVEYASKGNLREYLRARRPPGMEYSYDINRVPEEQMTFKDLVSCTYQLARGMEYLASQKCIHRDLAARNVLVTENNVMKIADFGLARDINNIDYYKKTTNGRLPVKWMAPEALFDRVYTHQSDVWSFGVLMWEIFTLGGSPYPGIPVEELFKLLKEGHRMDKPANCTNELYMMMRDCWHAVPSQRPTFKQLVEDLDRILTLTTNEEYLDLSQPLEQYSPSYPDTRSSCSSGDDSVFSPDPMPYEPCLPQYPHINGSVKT
The target of the next assay is FGFR4 (Homo sapiens (Human), UniProt P22455). The protocol: as §1, §2
Chain of FGFR4 (P22455 22-802): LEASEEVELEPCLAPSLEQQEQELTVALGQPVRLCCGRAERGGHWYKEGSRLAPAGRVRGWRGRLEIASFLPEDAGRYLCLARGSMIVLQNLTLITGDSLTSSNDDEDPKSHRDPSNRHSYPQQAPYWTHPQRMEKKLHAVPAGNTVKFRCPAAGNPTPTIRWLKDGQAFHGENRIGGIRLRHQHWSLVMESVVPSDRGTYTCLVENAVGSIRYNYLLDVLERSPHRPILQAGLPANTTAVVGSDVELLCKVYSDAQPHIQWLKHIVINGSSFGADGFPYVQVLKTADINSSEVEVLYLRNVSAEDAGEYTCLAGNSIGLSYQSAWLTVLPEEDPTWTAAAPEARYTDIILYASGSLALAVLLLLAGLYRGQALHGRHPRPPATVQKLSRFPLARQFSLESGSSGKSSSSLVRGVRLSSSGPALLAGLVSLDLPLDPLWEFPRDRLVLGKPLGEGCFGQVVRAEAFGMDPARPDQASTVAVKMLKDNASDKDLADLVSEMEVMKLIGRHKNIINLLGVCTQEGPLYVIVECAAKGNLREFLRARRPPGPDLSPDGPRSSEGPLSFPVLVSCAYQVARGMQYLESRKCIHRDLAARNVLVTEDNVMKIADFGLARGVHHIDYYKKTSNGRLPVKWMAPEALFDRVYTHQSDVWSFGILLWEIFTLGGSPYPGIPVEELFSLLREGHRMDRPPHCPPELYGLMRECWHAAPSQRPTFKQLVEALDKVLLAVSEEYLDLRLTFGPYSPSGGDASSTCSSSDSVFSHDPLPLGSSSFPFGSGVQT
In another assay the target is FGFR1 (Homo sapiens (Human), UniProt P11362). Here is the method: as §1, §2
Chain of FGFR1 (P11362 22-822): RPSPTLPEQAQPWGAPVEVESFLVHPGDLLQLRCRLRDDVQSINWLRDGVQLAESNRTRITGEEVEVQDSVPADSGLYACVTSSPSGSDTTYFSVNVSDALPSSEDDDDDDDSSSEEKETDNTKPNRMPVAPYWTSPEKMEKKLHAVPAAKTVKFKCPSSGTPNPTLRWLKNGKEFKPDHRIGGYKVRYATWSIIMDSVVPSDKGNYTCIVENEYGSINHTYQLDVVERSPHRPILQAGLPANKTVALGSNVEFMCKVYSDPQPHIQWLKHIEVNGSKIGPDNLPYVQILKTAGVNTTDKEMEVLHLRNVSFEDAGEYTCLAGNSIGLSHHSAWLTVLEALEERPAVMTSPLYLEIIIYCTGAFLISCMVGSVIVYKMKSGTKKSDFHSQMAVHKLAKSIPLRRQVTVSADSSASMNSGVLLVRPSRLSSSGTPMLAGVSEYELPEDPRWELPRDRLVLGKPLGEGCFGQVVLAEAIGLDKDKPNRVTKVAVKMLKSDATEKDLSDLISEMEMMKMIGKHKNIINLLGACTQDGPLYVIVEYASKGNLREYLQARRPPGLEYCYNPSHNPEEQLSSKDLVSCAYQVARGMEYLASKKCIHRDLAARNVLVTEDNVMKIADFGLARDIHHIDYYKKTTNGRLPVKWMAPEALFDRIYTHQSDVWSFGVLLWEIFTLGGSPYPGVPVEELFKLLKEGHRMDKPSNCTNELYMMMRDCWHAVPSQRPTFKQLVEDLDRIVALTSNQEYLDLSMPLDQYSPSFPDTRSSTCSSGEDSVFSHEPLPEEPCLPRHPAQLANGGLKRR
The target of another assay is FGFR3 (Homo sapiens (Human), UniProt P22607). Here is the method:
as §1, §2

Chain of FGFR3 (P22607 23-806): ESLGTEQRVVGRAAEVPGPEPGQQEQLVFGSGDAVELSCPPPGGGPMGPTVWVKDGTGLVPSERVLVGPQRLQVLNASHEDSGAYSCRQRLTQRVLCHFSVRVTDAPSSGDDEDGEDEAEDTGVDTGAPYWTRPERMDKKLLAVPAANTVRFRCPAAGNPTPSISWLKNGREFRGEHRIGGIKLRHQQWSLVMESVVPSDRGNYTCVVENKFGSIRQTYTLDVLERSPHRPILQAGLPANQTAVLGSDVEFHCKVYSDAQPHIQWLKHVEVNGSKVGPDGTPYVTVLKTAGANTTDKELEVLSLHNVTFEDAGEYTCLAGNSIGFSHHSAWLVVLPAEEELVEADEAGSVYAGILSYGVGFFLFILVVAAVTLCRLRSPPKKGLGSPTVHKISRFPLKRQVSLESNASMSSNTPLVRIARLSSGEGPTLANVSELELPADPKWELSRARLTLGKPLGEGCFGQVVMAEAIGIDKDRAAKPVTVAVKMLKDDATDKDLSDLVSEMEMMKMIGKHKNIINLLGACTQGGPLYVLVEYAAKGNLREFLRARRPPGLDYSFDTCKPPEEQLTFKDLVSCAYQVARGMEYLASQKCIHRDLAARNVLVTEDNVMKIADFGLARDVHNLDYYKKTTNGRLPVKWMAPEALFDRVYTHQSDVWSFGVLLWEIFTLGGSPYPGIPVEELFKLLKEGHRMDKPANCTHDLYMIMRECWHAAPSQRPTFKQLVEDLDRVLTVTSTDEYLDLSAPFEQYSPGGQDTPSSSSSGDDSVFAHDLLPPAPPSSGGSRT
Chain of VEGFR2 (P35968 20-1356): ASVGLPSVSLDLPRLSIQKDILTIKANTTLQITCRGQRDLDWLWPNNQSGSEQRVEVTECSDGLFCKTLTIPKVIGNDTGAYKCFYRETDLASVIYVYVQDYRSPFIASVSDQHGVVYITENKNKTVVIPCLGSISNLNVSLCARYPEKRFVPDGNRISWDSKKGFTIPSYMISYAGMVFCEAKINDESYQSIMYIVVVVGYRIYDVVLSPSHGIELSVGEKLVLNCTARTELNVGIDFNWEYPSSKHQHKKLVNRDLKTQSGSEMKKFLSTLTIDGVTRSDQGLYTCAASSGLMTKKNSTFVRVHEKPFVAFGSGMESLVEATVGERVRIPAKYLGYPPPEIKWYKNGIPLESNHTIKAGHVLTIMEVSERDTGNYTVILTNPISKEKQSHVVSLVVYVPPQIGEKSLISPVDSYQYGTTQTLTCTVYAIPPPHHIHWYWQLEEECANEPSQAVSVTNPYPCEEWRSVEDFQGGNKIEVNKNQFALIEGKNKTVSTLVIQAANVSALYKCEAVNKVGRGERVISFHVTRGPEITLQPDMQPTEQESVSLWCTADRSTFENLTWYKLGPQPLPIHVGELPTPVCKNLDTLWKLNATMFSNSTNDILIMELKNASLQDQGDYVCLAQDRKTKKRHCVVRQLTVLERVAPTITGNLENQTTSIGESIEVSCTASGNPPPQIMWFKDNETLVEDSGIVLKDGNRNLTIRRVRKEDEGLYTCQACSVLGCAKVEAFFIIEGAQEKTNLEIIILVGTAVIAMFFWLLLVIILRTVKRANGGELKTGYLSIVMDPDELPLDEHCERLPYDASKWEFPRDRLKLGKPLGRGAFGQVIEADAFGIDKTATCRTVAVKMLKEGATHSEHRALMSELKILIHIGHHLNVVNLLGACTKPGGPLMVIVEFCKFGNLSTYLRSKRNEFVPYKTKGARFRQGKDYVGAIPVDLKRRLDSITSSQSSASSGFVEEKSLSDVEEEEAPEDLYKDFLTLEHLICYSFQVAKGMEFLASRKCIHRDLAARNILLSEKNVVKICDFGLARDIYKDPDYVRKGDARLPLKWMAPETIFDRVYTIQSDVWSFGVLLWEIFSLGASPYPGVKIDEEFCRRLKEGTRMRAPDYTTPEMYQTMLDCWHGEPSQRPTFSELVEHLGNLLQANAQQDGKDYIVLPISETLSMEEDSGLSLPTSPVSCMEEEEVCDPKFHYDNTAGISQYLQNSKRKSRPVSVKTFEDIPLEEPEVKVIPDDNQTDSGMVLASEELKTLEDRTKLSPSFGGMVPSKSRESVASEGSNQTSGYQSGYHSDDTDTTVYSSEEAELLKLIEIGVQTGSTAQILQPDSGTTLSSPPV

For `COc1cc(OC)c2c(c1)N(c1ccc3ncc(-c4cnn(C)c4)cc3c1)CCN(C(C)C)C2` [Compound 1], the values for the Kd on VEGFR2, at FGFR2 and on FGFR4 were above 3.02e-06 M, 1.86e-06 M and 2.45e-06 M, respectively.
For `COc1cc(OC)c2c(c1)N(c1ccc3ncc(-c4cnn(C)c4)cc3c1)CCN(C)C2` [Compound 2], the Kd on VEGFR2, on FGFR2 and at FGFR4 was above 3.02e-06 M in each case.
For `COc1cc(OC)c2c(c1)N(c1ccc3ncc(-c4cn[nH]c4)cc3c1)CCN(C(C)C)C2` [Compound 3], the dissociation constant (Kd) on VEGFR2 is above 3.02e-06 M; at FGFR2, 8.91e-07 M; on FGFR4, 1.38e-06 M.
Take `COc1cc(O)cc2c1CN(C(C)C)CCN2c1ccc2ncc(-c3cnn(C)c3)cc2c1` [Compound 4]: the Kd at VEGFR2, at FGFR2, at FGFR1, on FGFR3 and at FGFR4 was above 3.02e-06 M each time.
Turning to `COc1cc(O)c2c(c1)N(c1ccc3ncc(-c4cnn(C)c4)cc3c1)CCN(C(C)C)C2` [Compound 5], the equilibrium dissociation constant (Kd) on VEGFR2, on FGFR2 and at FGFR4 was above 3.02e-06 M in each case.
As to `CC(C)N1CCN(c2ccc3ncc(-c4cnn(C)c4)cc3c2)c2cc(O)cc(O)c2C1` [Compound 6], the Kd on VEGFR2, at FGFR2, on FGFR1, at FGFR3 and at FGFR4 was above 3.02e-06 M throughout.
Turning to `COc1cc(OC)c2c(c1)N(c1ccc3ncc(-c4cnn(C)c4)nc3n1)CCN(C(C)C)C2` [Compound 7], the dissociation constant (Kd) at VEGFR2 was 2.69e-07 M; at FGFR2, above 1e-06 M; on FGFR1, above 3.02e-06 M; at FGFR3, above 3.02e-06 M; on FGFR4, above 3.02e-06 M.
Regarding `COc1cc(OC)c2c(c1)N(c1ccc3ncc(-c4cnn(C)c4)cc3n1)CCN(C(C)C)C2` [Compound 9], the dissociation constant Kd at VEGFR2 was 1.05e-06 M; at FGFR2, 9.33e-07 M; at FGFR4, 1.91e-07 M.
`COc1cc(OC)c2c(c1)N(c1ccc3ncn(-c4cnn(C)c4)c(=O)c3c1)CCN(C(C)C)C2` [Compound 11]: the dissociation constant Kd at VEGFR2, at FGFR2, on FGFR1, at FGFR3 and at FGFR4 was above 3.02e-06 M each time.
Turning to `COc1cc(OC)c2c(c1F)N(c1ccc3ncn(-c4cnn(C)c4)c(=O)c3c1)CCN(C(C)C)C2` [Compound 12], the Kd at VEGFR2 is above 3.02e-06 M; on FGFR2 it was 1.86e-06 M; on FGFR4, above 3.02e-06 M.

Values taken from patent publication US11542247B2, “Bi-heteroaryl substitute 1,4-benzodiazepines and uses thereof for the treatment of cancer” (Janssen Pharmaceutica NV, priority 2015, dated 2023).
